Laboratory results as given in patent US10813906B2, “Use of ferrous amino acid chelate to treat infection by enteropathogen and to enhance growth performance” (Profeat Biotechnology Co., Ltd., priority 2018, dated 2020).

Assays:
Escherichia coli = assay: Enteropathogen infection in chickens, real time PCR of feces: Escherichia coli; type: in vivo, Taiwan black-feather country chickens; settings: Week 10, feces from cloaca
[1] = Growth performance of chickens fed mixed feed for 12 weeks; type: in vivo, Taiwan black-feather country chickens; settings: for Body weight: mean ± S.D., 20 g of Fe per 1000 kg of mixed feed; for ADG (average daily gain) / FE (feed efficiency, ratio of total feed intake to total body weight): Week 12, 20 g of Fe per 1000 kg of mixed feed
Description: The experimental chickens were randomly divided into a control group and an experimental group (n=40/group), and each group was placed in a pen with a size of 6.5 m^2. Water was provided ad libitum for all of the experimental chickens. […] The mixed feed supplied to the control group was made from a basal diet and a ferrous sulfate (20 g of Fe per 1000 kg of the mixed feed). The mixed feed supplied to the experimental group was made from the basal diet and the ferrous amino acid chelate prepared as described in the section, entitled “1. […] The body weight of each chicken was determined before and after supply of the mixed feed. Subsequently, average daily gain (ADG) of the chickens in each group was calculated based on the body weight and the feed intake. Feed efficiency (FE) defined as a ratio of total feed intake to total body weight was also calculated. The experimental data were analyzed via Student's t-test so as to assess the difference between the test groups. Statistical significance is indicated by p<0.05.

Clostridium perfringens = type: in vivo, Taiwan black-feather country chickens; settings: Week 6; feces from cloaca, real time PCR
Salmonella spp. = assay: Enteropathogen infection in chickens, real time PCR of feces: Salmonella spp.; type: in vivo, Taiwan black-feather country chickens; settings: Week 10, feces from cloaca
Description: Taiwan black-feather country chickens (1 day of age) were purchased from Animal Research Farm in National Chia-Yi University (Taiwan), and were raised in a farm under the guidelines of Animal Care Committee of the Council of Agriculture, Taiwan. The experimental chickens were randomly divided into a control group and an experimental group (n=40/group), and each group was placed in a pen with a size of 6.5 m^2. Water was provided ad libitum for all of the experimental chickens.
Each of the experimental chickens was fed with a mixed feed for 12 weeks at a dose of 0.1 kg per day. The mixed feed supplied to the control group was made from a basal diet and a ferrous sulfate (20 g of Fe per 1000 kg of the mixed feed). The mixed feed supplied to the experimental group was made from the basal diet and the ferrous amino acid chelate prepared as described in the section, entitled “1. Preparation of ferrous amino acid chelate” of the “General Experimental Materials” (20 g of Fe per 1000 kg of the mixed feed).
Moreover, during supply of the mixed feed, fifteen chickens were randomly chosen at a designated time point to collect the feces from the cloaca thereof using cotton swabs.
In addition, the obtained feces were subjected to nucleic acid extraction with Taco™ DNA/RNA Extraction Kit (GeneReach Biotechnology Corp) according to the manufacturer's instructions. […]

[2] = Growth performance of postweaning piglets fed mixed feed for 8 weeks; type: in vivo; settings: for ADFI (average daily feed intake) / ADG (average daily gain) / FE (feed efficiency, ratio of ADFI to ADG) / Total feed intake: age 4 to 12 weeks; for Body weight: mean ± S.D.; for Total feed intake: whole group
Description: About 1000 male piglets and 1000 female piglets (purchased from HAIFUNG ranch, Yunlin County, Taiwan and bred in the nursery) were used in the following experiment. The experimental piglets were randomly divided into an experimental group and a control group, and sufficient water and feed were supplied to the experimental piglets. […] The mixed feed supplied to the experimental group was made from the basal diet and the ferrous amino acid chelate prepared as described in the section, entitled “1. […] Subsequently, average daily gain (ADG) and average daily feed intake (ADFI) of the postweaning piglets in each group were calculated based on the body weight and the total feed intake. Feed efficiency (FE) defined as a ratio of ADFI to ADG was also calculated. The experimental data were expressed as mean±S.D., and were analyzed via Student's t-test so as to assess the difference between the test groups. Statistical significance is indicated by p<0.05.

Coccidia = Coccidia infestation in chickens, microscopic observation of feces; type: in vivo, Taiwan black-feather country chickens; settings: Week 6
Description: The experimental chickens were randomly divided into a control group and an experimental group (n=40/group), and each group was placed in a pen with a size of 6.5 m^2. Water was provided ad libitum for all of the experimental chickens. […] The mixed feed supplied to the control group was made from a basal diet and a ferrous sulfate (20 g of Fe per 1000 kg of the mixed feed). The mixed feed supplied to the experimental group was made from the basal diet and the ferrous amino acid chelate prepared as described in the section, entitled “1. […] Moreover, during supply of the mixed feed, fifteen chickens were randomly chosen at a designated time point to collect the feces from the cloaca thereof using cotton swabs. Coccidia infestation is determined by microscopic observation of the obtained feces sample.

[3] = Week 0 (before supply of the mixed feed)
[4] = age 4 weeks (at weaning, start of the mixed feed)
[5] = age 12 weeks, after 8 weeks of mixed feed (basal diet:iron source 1000:1)

| Substance | Enteropathogen infection, Escherichia coli (percentage of infection among 15 selected chickens) (Escherichia coli) [%] | Body weight [1, 3] [g] | ADG (average daily gain) [1] [g/day per chicken] | FE (feed efficiency, ratio of total feed intake to total body weight) [1] | Body weight ([1]; Week 12 of mixed feed) [g] | Enteropathogen infection, Clostridium perfringens (percentage of infection among 15 selected chickens) (Clostridium perfringens) [%] | Enteropathogen infection, Salmonella spp. (percentage of infection among 15 selected chickens) (Salmonella spp.) [%] | ADFI (average daily feed intake) [2] [kg/day per piglet] | ADG (average daily gain) [2] [kg/day per piglet] | FE (feed efficiency, ratio of ADFI to ADG) [2] | Body weight [2, 4] [kg] | Body weight [2, 5] [kg] | Total feed intake [2] | Enteropathogen infection, Coccidia (percentage of infection among 15 selected chickens) (Coccidia) [%] |
| --- | --- | --- | --- | --- | --- | --- | --- | --- | --- | --- | --- | --- | --- | --- |
| ferrous glycinate chelate [ferrous amino acid chelate] | 27 | 32.48 ± 3.49 | 25.44 | 3.59 | 2143.71 ± 250.23 | 0 | 53 | 0.78 | 0.40 | 1.93 | 9.08 ± 0.94 | 32.84 ± 4.01 | 36,500 kg | 33 |
| ferrous sulfate | 93 | 31.06 ± 2.94 | 23.3 | 3.88 | 1965 ± 194.44 | 33 | 93 | 0.85 | 0.30 | 2.80 | 8.40 ± 1.17 | 28.00 ± 4.28 | 33,255 kg | 100 |
